Among the data in patent US6124284A, “Bicyclic amide derivatives and their use as muscle relaxants” (Glaxo Wellcome Inc., priority 1998, dated 2000) are arthritic scores, Spleen weight and plasma fibrinogen values, retold here.

For this assay, the system named is rat. The experiment in a line: Established adjuvant arthritis (adjuvant-induced polyarthritis in the rat). In kind it is in vivo, female Lewis rats. The note with it: 50 mg/kg b.i.d. Here is the method: The procedures for this test have been described in detail by R. Vinegar, J. F. Truax, J. L. Selph. A. Lea, and P. R. Johnston (J. Immunopharmacol. 1:497-520, 1979). The rats used in these studies were female Lewis rats whose starting weight was 190±10 g. Arthritic rats were assigned to treatment groups consisting of six animals each. Fed rats were dosed by oral gavage starting on day 21 post adjuvant injection; therapy was continued until day 28. The incidence and severity of arthritic lesions were assessed using a modification of the scoring procedure described by H. L. F. Currey and M. Ziff (J. Exp. Med. 121:185-203, 1968). Briefly, the bilateral joints were scored for erythema, edema, and ankylosis as outlined below:
The maximal possible score per rat was 40. Experimental results were analyzed by one-way ANOVA, followed by post hoc comparisons of treatment effects versus untreated arthritic control using the Newman-Keuls test. The percent inhibition of each drug-treated group was calculated from the mean relative to the arthritic control.

Regarding `NC(=O)/C=C1\CCc2c(F)cc(F)cc21` [Example 5, (E)-2-(4,6 Difluoro-1-indanylidene)acetamide], the arthritic scores entry (oral gavage, days 22, 25, and 27, versus untreated arthritic control) is reported as “significantly (p<0.01) lowered arthritic scores”. In addition, for the setting “postmortem on day 27”, the Spleen weight result was “significantly reduced (p<0.01)” and the plasma fibrinogen result was “significantly reduced (p<0.01)”.
